Experiment [1] concerns the target Dihydrofolate reductase (Lactobacillus casei) (UniProt P00381). Description: Activity at DCM-resistant Lactobacillus casei DHFR relative to 7,8-dihydrofolic acid. The conditions noted are these: Lacticaseibacillus casei.
For experiment [2] the target is unchanged. Description: Inhibition of DCM-resistant Lactobacillus casei DHFR at 0.13 mM. The conditions noted are these: Lacticaseibacillus casei.
Experiment [3] shares this target. The experiment is described as follows: Activity at DCM-resistant Lactobacillus casei DHFR. The conditions noted are these: Lacticaseibacillus casei.
In experiment [4] the test system is Enterococcus faecium. The experiment is described as follows: Growth inhibition of Streptococcus faecium ATCC 8043 at 50 ng/ml by turbidimetric method. The class given is functional. The note with it: read-out: GI.
A further experiment deals with Dihydrofolate reductase (Lactobacillus casei, UniProt P00381). Description: Inhibition of DCM-resistant Lactobacillus casei DHFR. On the set-up: species or system Lacticaseibacillus casei. The conditions noted are these: read-out: I50.
Sequence of Dihydrofolate reductase (P00381 whole entry): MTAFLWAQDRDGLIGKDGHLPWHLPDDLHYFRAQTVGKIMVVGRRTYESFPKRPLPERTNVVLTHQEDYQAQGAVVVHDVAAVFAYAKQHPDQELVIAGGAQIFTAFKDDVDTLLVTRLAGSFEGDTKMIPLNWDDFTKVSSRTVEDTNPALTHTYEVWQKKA
Experiment [5] relates to Enterococcus faecium. Description: Growth inhibition of Streptococcus faecium ATCC 8043 at 5 ng/ml by turbidimetric method. In kind it is functional. The conditions noted are these: read-out: GI.

pIC50: −log10 of the molar value. Calls of active or inactive are those of the source. The calls are words filed in the database; no cut-off is given here.

Sequence of Dihydrofolate reductase (Lactobacillus casei) (P00381 whole entry): as above

Consider `Nc1nc(=O)c2c([nH]1)NCC(CSc1ccc(C(=O)N[C@@H](CCC(=O)O)C(=O)O)cc1)=N2`, for which the Activity in experiment [1] is 28%. For `Nc1nc(=O)c2c([nH]1)NCC(COc1ccc(C(=O)N[C@@H](CCC(=O)O)C(=O)O)cc1)=N2`, in experiment [2], the inhibition entry is “inactive”. For the same molecule, in experiment [3], the result was inactive.

As to `Nc1nc(=O)c2nc(COc3ccc(C(=O)N[C@@H](CCC(=O)O)C(=O)O)cc3)cnc2[nH]1`, in experiment [2], the inhibition entry is “inactive”. Also, the inhibition of growth at 0.05 µg/mL in the experiment on Enterococcus faecium [4] was 50%. As for `Nc1nc(N)c2nc(COc3ccc(C(=O)N[C@@H](CCC(=O)O)C(=O)O)cc3)cnc2n1`, the pIC50 on Dihydrofolate reductase was 8.35. Further, the inhibition of growth at 0.005 µg/mL in the experiment with Enterococcus faecium [5] is 50%.

Values taken from ChEMBL document CHEMBL3272223, “Folate analogues altered in the C9-N10 bridge region. 10-Oxafolic acid and 10-oxaaminopterin” (J Med Chem, 1976).
